Data from patent publication US8211828B2 (priority 2007, dated 2012).

Tested on: Puccinia recondita
Assay: Curative activity against brown rust of wheat caused by Puccinia recondita (greenhouse)
Format: in vivo
Conditions: single active compound, 0.25 ppm, control 90% infection
Protocol: The expected efficacies of active compound combinations were determined using Colby's formula (Colby, S. R. “Calculating synergistic and antagonistic responses of herbicide combinations”, Weeds, 15, 20-22, 1967) and compared with the observed efficacies. Colby's formula: E=x+y−x·y/100 • E expected efficacy, expressed in % of the untreated control, when using the mixture of the active compounds A and B at the concentrations a and b; • x efficacy, expressed in % of the untreated control, when using the active compound A at the concentration a; • y efficacy, expressed in % of the untreated control, when using the active compound B at the concentration b. Micro Tests
The active compounds were separately or jointly prepared as a stock solution comprising 25 mg of active compound which was made up to 10 ml using a mixture of acetone and/or dimethyl sulfoxide and the emulsifier Uniperol® EL (wetting agent having emulsifying and dispersing action based on ethoxylated alkylphenols) in a volume ratio of solvent/emulsifier of 99 to 1. The mixture was then made up with water to 100 ml. This stock solution was diluted with the solvent/emulsifier/water mixture described to the concentration of active compound stated below.
Leaves of potted wheat seedlings were inoculated with a spore suspension of brown rust (Puccinia recondita). The pots were then placed in a chamber with high atmospheric humidity (90 to 95%) and 20 to 22° C. for 24 hours. During this time, the spores germinated and the germ tubes penetrated into the leaf tissue. The next day, the infected plants were sprayed to runoff point with the active compound solution described above at the active compound concentration stated below. After the spray coating had dried on, the test plants were cultivated in a greenhouse at temperatures between 20 and 22° C. and at 65 to 70% relative atmospheric humidity for 7 days. The extent of the rust fungus development on the leaves was then determined.
(§1) The visually determined percentages of infected leaf areas were converted into efficacies in % of the untreated control.
The efficacy (E) is calculated as follows using Abbot's formula: Abbot's formula: E=(1−α/β)·100 • α corresponds to the fungicidal infection of the treated plants in % and • β corresponds to the fungicidal infection of the untreated (control) plants in %
An efficacy of 0 means that the infection level of the treated plants corresponds to that of the untreated control plants; an efficacy of 100 means that the treated plants were not infected.

SMILES	Observed effect (%)
Cn1cc(C(=O)Nc2ccccc2-c2cc(F)c(F)c(F)c2)c(C(F)F)n1 [Compound 3-9, N-(3′,4′,5′-trifluorobiphenyl-2-yl)-3-difluoromethyl-1-methyl-1H-pyrazole-4-carboxamide]	0

Same assay, conditions: single active compound, 1 ppm, control 90% infection

SMILES	Observed effect (%)
CCCCCCCCc1c(CC)nc2nc(N)nn2c1N [7-5]	0
CCCCCCCCc1nc2ncnn2c(N)c1CC [7-6]	0
CCc1nc2ncnn2c(N)c1CCC(C)CC(C)(C)C (stereo not shown) [7-8]	0

Tested on: Puccinia recondita
Assay: Protective activity against Puccinia recondita on wheat (brown rust of wheat) (greenhouse)
Format: in vivo
Conditions: single active compound, 0.25 ppm, control 80% infection
Protocol: The expected efficacies of active compound combinations were determined using Colby's formula (Colby, S. R. “Calculating synergistic and antagonistic responses of herbicide combinations”, Weeds, 15, 20-22, 1967) and compared with the observed efficacies. Colby's formula: E=x+y−x·y/100 • E expected efficacy, expressed in % of the untreated control, when using the mixture of the active compounds A and B at the concentrations a and b; • x efficacy, expressed in % of the untreated control, when using the active compound A at the concentration a; • y efficacy, expressed in % of the untreated control, when using the active compound B at the concentration b. Micro Tests […]
as §1
The efficacy (E) is calculated as follows using Abbot's formula: Abbot's formula: E=(1−α/β)·100 • α corresponds to the fungicidal infection of the treated plants in % and • β corresponds to the fungicidal infection of the untreated (control) plants in % […]
Leaves of potted wheat seedlings were sprayed to runoff point with an aqueous suspension having the active compound concentration stated below. […] The extent of the rust fungus development on the leaves was then determined visually.

SMILES	Observed effect (%)
Cn1cc(C(=O)Nc2ccccc2-c2cc(F)c(F)c(F)c2)c(C(F)F)n1 [Compound 3-9, N-(3′,4′,5′-trifluorobiphenyl-2-yl)-3-difluoromethyl-1-methyl-1H-pyrazole-4-carboxamide]	50

Same assay, conditions: single active compound, 1 ppm, control 80% infection

SMILES	Observed effect (%)
Cc1nc2ncnn2c(N)c1-c1ccc(Cl)c(Cl)c1 [7-1]	0

Tested on: Phytophthora infestans
Assay: microbe, parasite or virus in culture
Format: cell-based
Conditions: 168 h, read-out: Observed effect (%)

SMILES	inhibition of growth at 1 ppm [%]	inhibition of growth at 4 ppm [%]	inhibition of growth at 0.25 ppm [%]	inhibition of growth at 16 ppm [%]
Cc1nc2ncnn2c(N)c1CCC(C)CC(C)(C)C (stereo not shown) [7-3]	31			
CCCCCCCCc1c(C)nc2ncnn2c1N [7-4]		45		
CCCCCCCCc1c(CC)nc2nc(N)nn2c1N [7-5]		73	27	
CCCCCCCCc1c(CCC)nc2ncnn2c1N [7-9]	20	58		
CC(CCc1c(C(F)(F)F)nc2ncnn2c1N)CC(C)(C)C (stereo not shown) [7-12]				66
COc1cc(-c2ccccc2NC(=O)c2cn(C)nc2C(F)(F)F)c(F)cc1Cl [Compound 3-1, N-(2′-fluoro-4′-chloro-5′-methoxybiphenyl-2-yl)-3-trifluoromethyl-1-methyl-1H-pyrazole-4-carboxamide]	0	0		4
Cn1cc(C(=O)Nc2ccccc2-c2cc(F)c(F)c(F)c2)c(C(F)(F)F)n1 [Compound 3-3, N-(3′,4′,5′-trifluorobiphenyl-2-yl)-3-trifluoromethyl-1-methyl-1H-pyrazole-4-carboxamide]	0	0	0	
COc1cc(-c2ccccc2NC(=O)c2cn(C)nc2C(F)F)c(F)cc1Cl [Compound 3-6, N-(2′-fluoro-4′-chloro-5′-methoxybiphenyl-2-yl)-3-difluoromethyl-1-methyl-1H-pyrazole-4-carboxamide]	0	3		18
Cn1cc(C(=O)Nc2ccccc2-c2ccc(F)c(F)c2F)c(C(F)(F)F)n1 [Compound 3-7, N-(2′,3′,4′-trifluorobiphenyl-2-yl)-3-trifluoromethyl-1-methyl-1H-pyrazole-4-carboxamide]	1	4		
Cc1cc(-c2ccccc2NC(=O)c2cn(C)nc2C(F)F)c(F)cc1Cl [Compound 3-8, N-(2′-fluoro-4′-chloro-5′-methylbiphenyl-2-yl)-3-difluoromethyl-1-methyl-1H-pyrazole-4-carboxamide]		10		20
Cn1cc(C(=O)Nc2ccccc2-c2cc(F)c(F)c(F)c2)c(C(F)F)n1 [Compound 3-9, N-(3′,4′,5′-trifluorobiphenyl-2-yl)-3-difluoromethyl-1-methyl-1H-pyrazole-4-carboxamide]		9		
Cn1cc(C(=O)Nc2ccccc2-c2cc(F)c(F)cc2F)c(C(F)F)n1 [Compound 3-10, N-(2′,4′,5′-trifluorobiphenyl-2-yl)-3-difluoromethyl-1-methyl-1H-pyrazole-4-carboxamide]	1	6		
Cn1cc(C(=O)Nc2ccccc2-c2cc(F)c(F)c(F)c2)c(CF)n1 [Compound 3-11, N-(3′,4′,5′-trifluorobiphenyl-2-yl)-3-fluoromethyl-1-methyl-1H-pyrazole-4-carboxamide]	7			9
Cn1cc(C(=O)Nc2ccccc2-c2ccc(F)c(F)c2F)c(CF)n1 [Compound 3-14, N-(2′,3′,4′-trifluorobiphenyl-2-yl)-3-fluoromethyl-1-methyl-1H-pyrazole-4-carboxamide]	3	11		18
